# Data taken from patent US7250410B2, “Cyclic nucleotide phosphodiesterase inhibitors, preparation and uses thereof” (Via Pharmaceuticals, Inc., priority 2001, dated 2007).
# Key:
# [1] = target: T1, PDE3 (Bos taurus, UniProt A0A3Q1M1E8); assay: Selectivity: inhibition of PDE3, radioenzymatic phosphodiesterase assay; assay type: biochemical, bovine; conditions: read-out: PDE3 percentage inhibition at 10 μM
# T1 sequence (A0A3Q1M1E8 1-1126): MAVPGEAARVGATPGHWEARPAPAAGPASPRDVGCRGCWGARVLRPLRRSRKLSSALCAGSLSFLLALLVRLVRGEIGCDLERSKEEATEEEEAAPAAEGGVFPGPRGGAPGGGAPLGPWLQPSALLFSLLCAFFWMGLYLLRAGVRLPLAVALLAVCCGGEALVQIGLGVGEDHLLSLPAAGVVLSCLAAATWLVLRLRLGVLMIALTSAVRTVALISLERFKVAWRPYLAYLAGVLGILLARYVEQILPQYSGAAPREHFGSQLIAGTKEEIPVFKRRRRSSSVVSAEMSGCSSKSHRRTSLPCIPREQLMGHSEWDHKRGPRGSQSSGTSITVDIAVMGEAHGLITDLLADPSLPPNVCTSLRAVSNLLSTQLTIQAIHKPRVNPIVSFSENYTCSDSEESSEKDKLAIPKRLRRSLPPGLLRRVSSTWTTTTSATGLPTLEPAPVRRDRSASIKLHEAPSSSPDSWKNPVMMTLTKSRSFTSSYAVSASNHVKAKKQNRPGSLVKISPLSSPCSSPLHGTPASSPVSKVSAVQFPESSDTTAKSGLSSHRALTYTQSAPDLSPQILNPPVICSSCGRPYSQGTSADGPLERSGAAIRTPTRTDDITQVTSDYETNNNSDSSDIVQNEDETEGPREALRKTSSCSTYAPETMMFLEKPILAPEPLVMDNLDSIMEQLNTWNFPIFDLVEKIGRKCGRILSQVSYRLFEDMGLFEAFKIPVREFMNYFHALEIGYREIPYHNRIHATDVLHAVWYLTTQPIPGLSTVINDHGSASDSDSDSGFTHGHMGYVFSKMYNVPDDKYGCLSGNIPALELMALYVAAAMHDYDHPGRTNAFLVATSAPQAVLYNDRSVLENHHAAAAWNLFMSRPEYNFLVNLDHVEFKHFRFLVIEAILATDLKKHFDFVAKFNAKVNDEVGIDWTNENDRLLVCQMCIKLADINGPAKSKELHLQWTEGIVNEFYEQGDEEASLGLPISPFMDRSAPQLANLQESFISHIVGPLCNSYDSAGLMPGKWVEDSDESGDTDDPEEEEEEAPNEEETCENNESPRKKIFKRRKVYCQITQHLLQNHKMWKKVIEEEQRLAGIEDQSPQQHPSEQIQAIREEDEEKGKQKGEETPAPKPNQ
# Procedure: A 3 g segment of bovine aortic media cut into pieces with scissors was homogenized with an ultra-turrax then a potter glass/glass homogenizer in 7 volumes by weight of buffer A containing a protease inhibitor cocktail (20 mM Tris-HCl, 0.25 M saccharose, 2 mM magnesium acetate, 1 mM dithiothreitol, 5 mM EGTA, 2000 U/ml aprotinin, 10 mg/l leupeptin and 10 mg/l soya trypsic inhibitor). The homogenizate was centrifuged at 105,000 g for 1 hour. The supernatant was loaded on a DEAE-Sephacel column (15×1.6 cm) pre-equilibrated with buffer B (buffer A without the saccharose, EGTA and protease inhibitors). The column was washed until there was no detectable absorption at 280 nm, then eluted with a linear gradient of NaCl (0–0.5 M) in buffer B. 3-ml fractions were collected and enzyme activity was determined under the conditions described hereinafter to localize the different enzymes PDE1, PDE3, PDE4 and PDE5, which were aliquoted and frozen at −80° C. (Lugnier et al., Biochem. Phamacol., 35 (1986) 1746–1751). PDE2 was prepared from bovine endothelial cells by the same methods (Lugnier and Schini, Biochem. Pharmacol. 1990, 39; 75–84).
# Cyclic nucleotide phosphodiesterase activity was determined by a radioenzymatic method using tritium-labelled cyclic GMP or AMP (1 μM) as substrate (Lugnier et al., 1986). ^3H-labelled adenosine or guanosine monophosphate formed by hydrolysis of the radiolabelled cyclic nucleotide was then converted to ^3H-labelled adenosine or guanosine in a second reaction with […] in excess. The nucleoside formed was separated from the nucleotides by anion exchange chromatography. Nucleoside radioactivity was determined by liquid scintillation counting. Enzymatic incubations were carried out under conditions allowing no more than 15% hydrolysis of the substrate; each point was performed in duplicate.
# The activity of the compounds was evaluated on other phosphodiesterase isoforms, particularly basal state or calmodulin-activated PDE1 from vascular smooth muscle, basal state or cyclic GMP-activated PDE2 from vascular endothelial cells, PDE3 and PDE5 from vascular smooth muscle.
# The results obtained are presented in Table 4 hereinafter and are expressed as the percentage inhibition of enzymatic activity produced by […] of the tested compound.
# [2] = system: TNFα; assay: TNFα production by LPS-activated mononuclear cells from venous blood (ELISA); assay type: cell-based; conditions: Homo sapiens
# Procedure: Compounds according to the invention were assessed for anti-inflammatory properties on mononuclear cells from venous blood of healthy donors (n=4), by a protocol approved by the Alsace No. 1 Ethics Committee. More specifically, the cells were incubated for 24 hours in 24-well plates in the presence of the test compound, after activation by Salmonella Abortis Equi lipopolysaccharide (LPS) (5 pg/ml) (cf. De Groote et al., Cytokine 4, 1992, 239). After incubation, TNFα concentrations were determined in the culture supernatant by an ELISA method (Antibody Solutions, Half Moon Bay, Calif., USA).
SMILES,inhibition at 10 µM [1],"inhibition at 1 µM ([2]; 24 h, read-out: inhibition of TNFα production)",IC50 ([2]; read-out: anti-TNFα activity IC50)
"CCOc1cc2c(cc1OC)C(c1ccccc1)=NCC(=O)N2C [IIda, 8-ethoxy-7-methoxy-1-methyl-5-phenyl-1,3-dihydro-2H-1,4-benzodiazepin-2-one]",47%,100%,
"CCOc1cc2c(cc1OCC)C(c1ccccc1)=NCC(=O)N2 [XXIIag, 7,8-diethoxy-5-phenyl-1,3-dihydro-2H-1,4-benzodiazepin-2-one]",22%,,100 to 1000 nM
